From US8680113B2, “BMI-1 protein expression modulators” (PTC Therapeutics, Inc., priority 2008, dated 2014)

Key:
[1] = test system: Caspases 3, 7, 8, 9 and PARP; assay: Western Blot Analysis: activation of apoptosis proteins in MCL cell lines; assay type: cell-based; details: MCL cells cultured for 72 hrs, FIG. 2
Method: Western Blot analysis was used to determine cytoplasmic protein levels of Bmi-1 and activation of key executioner proteins (Caspases 3, 7, 8, 9) involved in apoptosis. Protein levels were measured in Bmi-1 inhibitor-treated mantle cell lymphoma cell lines. […] Cells were harvested at each time point, washed with ice-cold PBS, and lysed with 1× lysis buffer (20 mM Tris-HCl (pH 7.5), 150 mM NaCl, 1 mM Na2EDTA, 1 mM EGTA, 1% Triton, 2.5 mM sodium pyrophosphate, 1 mM beta-glycerophosphate, 1 mM Na3VO4, 1 μg/ml leupeptin; Cell Signaling Technology; Danvers, Mass.). Protein concentrations were determined using Pierce BCA protein assay (Thermo Scientific; Rockford, Ill.). Electrophoresis of cell lysates (25 μg) were performed with Mini Protean Systems by Bio-Rad Laboratories and run in Bio-Rad Readymade Pre-Cast Gels (4-20% Tris-HCl gels). Proteins were transferred onto PVDF membrane (Bio-Rad), and immunoblotted with anti-Bmi-1-clone F6 antibody (Millipore; Temecula, Calif.) and Caspases 3, 7, 8 and 9 (Cell Signaling Technology; Danvers, Mass.).

MCL-Jeko = assay: Mantle Cell Lymphoma Assay: cytotoxicity, Jeko; assay type: cell-based; details: MCL-Jeko, 72 hrs
Description: MCL cell lines Jeko, Mino, and Rec-1 were provided by American Type Culture Collection: The Bioresource Center (Manassas, Va.). […] Carlsbad, Calif.) in T-75 culture flasks. Cell concentration was maintained between 2 to 3×10^5 cells/mL. Early passage cells (passages 2-4) were used for all experiments. Ficoll-Histopaque density sedimentation (Sigma Aldrich) was used for separation of debris and purification of cell lines prior to experiments. […] The cytotoxic effect of test compounds on the MCL-cell lines was assessed by measuring cell concentration and cell viability using a Beckman Coulter Vi-Cell Counter. Controls and treated cells were harvested and counted at day 3.

[2] = test system: Jeko, Mino and Rec1 MCL-cell lines; assay: Cell Cycle Analysis (propidium iodide flow cytometry); assay type: cell-based; details: MCL cells, 60 nM, FIG. 3
Method: Cell cycle analysis was performed for MCL-cell lines treated with Bmi-1 inhibitor Compounds 1 (data not shown), 14 and 49 (data not shown). For example, Jeko, Mino and Red cells treated with BMI-1 inhibitor Compound 14 at concentrations of 60 nM, 75 nM, and 60 nM, respectively were cultured in T-25 flasks for 24, 48 and 72 hours in 37° C. About 1×10^6 cells were harvested, washed with PBS, fixed with ice-cold 70% ethanol, and treated with 1 mg/ml RNase A (Invitrogen; Carlsbad, Calif.). Cells were then stained with 5 μL 1 mg/mL Propidium Iodide (Sigma-Aldrich; St. Louis, Mo.), incubated in ice for at least 1 hr, and the cell cycle profile was determined using flow cytometry analysis. The same protocol was followed for cell cycle analysis of Jeko, Mino, and Rec1 cell lines treated with Compounds 1 (data not shown) and 49 (data not shown).

p27 = assay: In-Vivo Xenograft Model: intratumor p27 levels (control); design: species or system nude mice; details: subcutaneously at 30 or 60 mg/kg/day for ten days
Method: HT1080 cells (human fibrosarcoma cells) were implanted subcutaneously in nude mice. After seven days, mice were administered compounds subcutaneously at 30 or 60 mg/kg/day for ten days. The tumors were then excised from mice and homogenized in Tris-HCl buffer containing a cocktail of proteinase inhibitors. Intratumor Bmi-1 levels were subsequently measured using the Bmi-1 ELISA assay of Example 1. Protein concentrations of the homogenates were measured with a Bio-Rad Protein assay kit and intratumor Bmi-1 levels were normalized to the protein concentrations. Treatment with the compound for ten days inhibited tumor growth by 35% as compared to the vehicle-treated control groups. […] Since p27 expression is not regulated by Bmi-1 activity, no changes in the levels of this protein were observed within treated tumors.

In the case of COc1ccc(Nc2nc(-c3c(C)nc4ncccn34)cs2)cc1 [Cpd 14, N-(4-methoxyphenyl)-4-(2-methylimidazo[1,2-a]pyrimidin-3-yl)thiazol-2-amine], the “activation of Caspase-9 and PARP” value [1] is reported as “activation of Caspase-9 and PARP”, the “Cell Concentration (×10^6)” value (MCL-Jeko; 0.004 μM) is reported as 1.83 ± 0.03 ×10^6 and the viability at 0.004 µM (MCL-Jeko; 0.004 μM, read-out: Cell Viability (%)) is reported as 74.9 ± 0.55%. The “Cell Concentration (×10^6)” value (MCL-Jeko; 0.037 μM) was 1.63 ± 0.05 ×10^6, the viability at 0.037 µM (MCL-Jeko; 0.037 μM, read-out: Cell Viability (%)) was 69.4 ± 1.63% and the “Cell Concentration (×10^6)” value (MCL-Jeko; 0.11 μM) was 0.07 ± 0.01 ×10^6. The viability at 0.11 µM (MCL-Jeko; 0.11 μM, read-out: Cell Viability (%)) was 6.5 ± 0.55%, the “Cell Concentration (×10^6)” value (MCL-Jeko; 0.33 μM) was 0.02 ± 0.00 ×10^6 and the viability at 0.33 µM (MCL-Jeko; 0.33 μM, read-out: Cell Viability (%)) was 1.9 ± 0.31%. For the same compound, the “Cell Concentration (×10^6)” value (MCL-Jeko; 1 μM) was 0.02 ± 0.00 ×10^6, the viability at 1 µM (MCL-Jeko; 1 μM, read-out: Cell Viability (%)) was 1.6 ± 0.26% and the “Cell Concentration (×10^6)” value (MCL-Jeko; 3 μM) was 0.03 ± 0.00 ×10^6. For the same compound, the viability at 3 µM (MCL-Jeko; 3 μM, read-out: Cell Viability (%)) was 2.5 ± 0.35%, the DNA content ([2]; at 48 and 72 hrs) was “increase in DNA content” and the cell cycle profile ([2]; at 24 hrs) was “G2/M block”.

COc1cc(Br)c(Nc2nc(-c3c(C)nc4ncccn34)cs2)c(Br)c1 [Cpd 1, N-(2,6-dibromo-4-methoxyphenyl)-4-(2-methylimidazo[1,2-a]pyrimidin-3-yl)thiazol-2-amine] was tested, and the “p27 levels within treated tumors” value (p27) was “no changes”.
